Like-named read-outs stand apart in the source and are kept apart here.
Tests used:
[1] = Zeta-potential measurement; assay type: physicochemical; details: for Zeta-pot. / mV: zeta potential of peptide, Fig S15 source data
Method in brief: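 Readout: zeta potential (mV) derived by Smoluchowski from measured electrophoretic mobility. Preformed aggregates (1 mg/mL peptide, PBS pH 7.4, RT for 1 d) were diluted into dilute KCl electrolyte (1 mM) shortly before analysis.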

[2] = Turbidity, derived count rate of scattered light; assay type: physicochemical; details: for Log Count Rate: log of derived count rate
Method in brief: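 Samples: 1 mg/mL in PBS pH 7.4 (from DMSO), 1 d at RT, then diluted in 1 mM KCl immediately before measurement. Triplicates, two independent runs averaged.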

[3] = ref sieste 2021 or Schilling2019; cited from earlier work
From the text: Supplement 41467_2023_40663_MOESM7_ESM.zip/FigS17.csv, table | column: Conversion Rate / % ( from sieste 2021 or Schilling2019)

TZM-bl cells = assay type: cell-based; details: CellTiter-Glo, mean of n = 3 replicates; for viability 0.26 µM: peptide 0.26 µM; for viability 1.3 µM: peptide 1.3 µM; for viability 6.5 µM: peptide 6.5 µM
Method in brief: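 Viability of TZM-bl cells (10,000 seeded) after 3 days with serially diluted peptides, measured by CellTiter-Glo luminescence. Values normalized to 100% metabolic activity; triplicates.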

[4] = derived count rate from zeta measurement, mean
[5] = derived count rate of scattered light, mean, std deviation in next column
[6] = category 1 or 0 from count rate, key not given
[7] = derived count rate of scattered light, mean, std deviation in separate column

Row | Substance | Zeta category ( +1 = if > 4 mV;-1 = if < -4 mV; 0 = -4mV to 4 mV) [1] | Zeta Pot. / mV ([1]; mean, Std Zeta in next column) | Zeta Pot. / mV ([1]; mean, Std in separate column) | Zeta-pot. / mV [1] | Zeta Count Rate Category ([2]; category 1/0, no key printed) | Zeta Count Rate / kcps [2, 5] | viability 0.26 µM (TZM-bl cells) | viability 1.3 µM (TZM-bl cells) | viability 6.5 µM (TZM-bl cells) | Zeta category ( +1 = if > 4 mV;-1 = if < -4 mV; 0 = -4mV to 4 mV) ([1]; category from zeta potential) | Zeta Count Rate Category [2, 6] | Zeta Count Rate / kcps [2, 7] | also measured
1 | CEIEIQI [AR2/ TM142] | -1 (-1 = if < -4 mV) | -26.1 mV | -26.1 mV | -26.1 mV | 0 | 51.97 kcps |  |  |  |  |  |  | Zeta Count Rate / kcps [2, 4]: 51.97 kcps; Zeta Count Rate Category ([2]; key not given): 0; Conversion Rate / % ( from sieste 2021 or Schilling2019) [3]: 59%
2 | CEIEIQINM [TM144] | -1 (-1 = if < -4 mV) | -15.3 mV | -15.3 mV | -15.3 mV | 0 | 58.43 kcps |  |  |  |  |  |  | Zeta Count Rate / kcps [2, 4]: 58.43 kcps; Zeta Count Rate Category ([2]; key not given): 0; Conversion Rate / % ( from sieste 2021 or Schilling2019) [3]: 43%
3 | QCKIKIQINM [CK2] | 1 (+1 = if > 4 mV) | 11.37 mV | 11.37 mV | 11.37 mV | 1 | 9524 kcps | 114.5 | 100.8 | 83.71 | 1 (+1 = if > 4 mV) | 1 | 9524 kcps | 
4 | QCKIKIQINMWQ [EF-C opt] | 1 (+1 = if > 4 mV) | 11.73 mV | 11.73 mV | 11.73 mV | 1 | 8271 kcps | 100.5 | 106.5 | 85.71 | 1 (+1 = if > 4 mV) | 1 | 8271 kcps | Log Count Rate ([2]; Fig S8 panels A, C, asymmetric log errors): 3.918; Log Count Rate ([2]; Fig S8 panels B, D): 3.918; Count Rate ([2]; Fig S8 panels B, D, turbidity, derived count rate of scattered light): 8271.27
5 | RGDCKFKFQF [TM64/ CN15] | 1 (+1 = if > 4 mV) | 13.87 mV |  | 13.87 mV |  | 1338 kcps | 108.7 | 107.1 | 101 | 1 (+1 = if > 4 mV) | 1 |  | Zeta Pot. / mV [1]: 13.87 mV; Zeta Count Rate Category ([2]; category 1 / 0, no key given): 1; Zeta Count Rate / kcps ([2]; derived count rate of scattered light): 1338 kcps
6 | RGDCKIKIQINM [TM45] | 1 (+1 = if > 4 mV) | 11.3 mV | 11.3 mV | 11.3 mV |  | 1623 kcps | 111.8 | 107.9 | 102.5 | 1 (+1 = if > 4 mV) | 1 | 1623 kcps | 
7 | RGDKIKIQIC [MG7/CN1] | 1 (+1 = if > 4 mV) | 16.5 mV | 16.5 mV | 16.5 mV |  | 7509 kcps | 116.2 | 110.7 | 92.54 | 1 (+1 = if > 4 mV) | 1 | 7509 kcps | 
8 | RGDSKIKIQIC [TM113 / RC11] |  | 15.1 mV |  | 15.1 mV |  | 2699 kcps | 92.36 | 89.65 | 83.18 | 1 (+1 = if > 4 mV) | 1 |  | 
